The text below walks through data of patent publication US8927577B2, “Quinolinyl glucagon receptor modulators” (Pfizer Inc., priority 2011, dated 2015).

In experiment [1] the target is T1, human glucagon receptor (Homo sapiens (Human), UniProt P47871). Description: Glucagon cAMP Assay. Type of experiment: cell-based. The settings on record: CHOK1 cells stably transfected with the human glucagon receptor; 100 pM glucagon challenge; Kb from IC50 by modified Cheng-Prusoff equation. On the procedure:
The Cisbio cAMP detection assay is used to determine the ability of punitive glucagon antagonist to block glucagon induced cAMP production. Potential glucagon antagonists are re-suspended and diluted in 100% DMSO. Prior to use in the Glucagon cAMP assay 100×DMSO compound stocks are diluted 20× with DMEM-F12 media (Invitogen) containing either 0.1% or 4% BSA. 2 uls of 5× compound stocks are spotted into the appropriate wells of low binding white solid bottom 384 well plates (Corning). 2 uls of 5% DMSO or known glucagon antagonist are added to each plate to define the assay window. CHOK1 cells stably transfected with the human glucagon receptor are removed from culture flasks with cell dissociation buffer. Cell pellets are re-suspended, at a concentration of 8.3e^5 cells/ml in DMEM-F12 with or without 4% BSA and 200 uM IBMX. 6 uls of cell suspensions are added to the assay plates. Plates are incubated for 20 min at room temperature prior to the addition of a 100 pM challenge dose of glucagon. On a separate plate glucagon dose response curves are run to determine the EC50 of glucagon. After a 30 min room temperature incubation the reaction is terminated by the addition of lysis buffer containing the cAMP detection reagents. Plates are incubated for an additional 60 min at room temperature prior to being read on the Perkin Elmer fluorescent plate reader. Raw is converted to nM of cAMP produced based on a cAMP standard curve. Converted data is then analyzed using the Pfizer data analysis program. IC50 values are determined from the generated sigmoidal dose response curves. Kb values are the calculated using a modified Cheng-Prusoff equation.

Experiment [2] deals with T1, human glucagon receptor. Nature of the experiment: Human Glucagon SPA Assay. The settings on record: membrane from chem-1 cells stably transfected with the human glucagon receptor; 125 pM [125I]Glucagon-Cex; Ki by Cheng-Prusoff equation; read-out: Binding Ki. On the procedure:
The Glucagon SPA assay is used to determine the ability of test compounds to block the binding of glucagon-cex to the glucagon receptor. Test compounds are re-suspended and serially diluted in 100% DMSO. 1 ul of test compound at the desired concentrations is spotted into the appropriate wells of 96 well low binding white clear bottom plate (Corning). 1 ul of DMSO is spotted into total binding wells. 1 ul of a known glucagon antagonist at a concentration of 20 uM is added to non specific binding wells. […] All assay ingredients with the exception of test compounds are re-suspended in the following buffer; 50 mM Hepes pH 7.4; 5 mM MgCl2; 1 mM CaCl; 5% glycerol and 0.2% BSA. Following a 6-10 hr incubation at room temperature the amount of hot ligand bound to the cell membranes is determined by reading the plates on a Wallac Trilux radioactive emission detector. Data is analyzed using Pfizer's Data analysis program. IC50 values are then determined from the generated sigmoidal dose response curves. Ki values are calculated using Cheng-Prusoff equation.

T1 sequence (P47871 26-477): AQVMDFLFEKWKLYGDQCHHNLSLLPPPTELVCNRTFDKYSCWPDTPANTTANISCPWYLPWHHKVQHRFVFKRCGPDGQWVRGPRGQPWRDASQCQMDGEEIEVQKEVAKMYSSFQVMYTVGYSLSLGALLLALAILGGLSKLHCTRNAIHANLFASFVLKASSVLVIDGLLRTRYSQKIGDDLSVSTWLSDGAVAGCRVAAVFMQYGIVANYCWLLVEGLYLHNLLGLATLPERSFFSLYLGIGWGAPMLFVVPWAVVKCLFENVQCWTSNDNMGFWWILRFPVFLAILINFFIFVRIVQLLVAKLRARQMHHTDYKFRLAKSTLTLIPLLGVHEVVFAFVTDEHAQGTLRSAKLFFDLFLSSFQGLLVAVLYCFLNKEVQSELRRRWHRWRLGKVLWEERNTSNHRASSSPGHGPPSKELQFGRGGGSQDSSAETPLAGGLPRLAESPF

As for `Cc1cc2ccccc2nc1NC(c1ccc(C(=O)NCCC(=O)O)cc1)C1CC(C)(C)C1` (single isomer, unassigned; isomer 1) [Example 32, 3-{4-[(3,3-dimethyl-cyclobutyl)-(3-methyl-quinolin-2-ylamino)-methyl]-benzoylamino}-propionic acid, isomer 1], at human glucagon receptor [1], the Kb came to 0.023 µM. On human glucagon receptor [2], the Ki (as a rule, a dissociation constant, usually derived from enzyme kinetics or from competition with a known ligand) stood at 0.053 µM.
Regarding `Cc1cc2ccccc2nc1NC(c1ccc(C(=O)NCCC(=O)O)cc1)C1CC(C)(C)C1` (racemic) [Example 19, (+/−)-3-{4-[(3,3-dimethyl-cyclobutyl)-(3-methyl-quinolin-2-ylamino)-methyl]-benzoylamino}-propionic acid], on human glucagon receptor [1], the Kb is 0.064 µM. For the same compound, on human glucagon receptor [2], the Ki amounted to 0.074 µM.
The compound `CC(C)CC(Nc1ccc2cccc(Cl)c2n1)c1ccc(C(=O)NCCC(=O)O)cc1` (racemic) [Example 13, (+/−)-3-{4-[1-(8-chloro-quinolin-2-ylamino)-3-methyl-butyl]-benzoylamino}-propionic acid] came in with a Kb at human glucagon receptor [1] of 0.14 µM. Further, the Ki at human glucagon receptor [2] stood at 0.199 µM.
Taken in the same sequence, the figures for `Cc1nc2ccccc2cc1NC(CC(C)C)c1ccc(C(=O)NCCC(=O)O)cc1` (centres unmarked) [Example 17, (+\−)-3-(4-(3-methyl-1-(2-methylquinolin-3-ylamino)butyl)benzamido)propanoic acid] were 0.88 µM and 0.36 µM.
`Cc1cc2ccccc2nc1NC(CC(C)C)c1ccc(C(=O)NCCC(=O)O)cc1` (single isomer, unassigned; isomer 2) [Example 31, 3-(4-(3-methyl-1-((3-methylquinolin-2-yl)amino)butyl)benzamido)propanoic acid, Isomer 2] registered a Kb on human glucagon receptor [1] of 1.3 µM. In addition, the Ki at human glucagon receptor [2] came to 1.24 µM.
Turning to `Cc1nc2ccccc2nc1NC(CC(C)C)c1ccc(C(=O)NCCC(=O)O)cc1` (racemic) [Example 8, (+/−)-3-{4-[3-methyl-1-(3-methyl-quinoxalin-2-ylamino)-butyl]-benzoylamino}-propionic acid], at human glucagon receptor [1], the Kb is 1 µM. For the same compound, at human glucagon receptor [2], the Ki is 0.979 µM.
In the same order, the values of `Cc1cc(NC(CC(C)C)c2ccc(C(=O)NCCC(=O)O)cc2)nc2cc(F)ccc12` (racemic) [Example 12, (+/−)-3-{4-[1-(7-fluoro-4-methyl-quinolin-2-ylamino)-3-methyl-butyl]-benzoylamino}-propionic acid] are 0.31 µM and 0.242 µM.
`Cc1cc2ccc(F)cc2nc1NC(c1ccc(C(=O)NCCC(=O)O)cc1)C1CC(C)(C)C1` (racemic) [Example 21, (+/−)-3-{4-[(3,3-dimethyl-cyclobutyl)-(7-fluoro-3-methyl-quinolin-2-ylamino)-methyl]-benzoylamino}-propionic acid]: the Kb on human glucagon receptor [1] was found to be 0.16 µM. On human glucagon receptor [2], the Ki is 0.133 µM.
At human glucagon receptor [1], `Cc1cc(NC(CC(C)C)c2ccc(C(=O)NCCC(=O)O)cc2)nc2ccccc12` (racemic) [Example 10, (+/−)-3-{4-[3-methyl-1-(4-methyl-quinolin-2-ylamino)-butyl]-benzoylamino}-propionic acid] gave a Kb of 0.22 µM. Besides, the Ki on human glucagon receptor [2] is 0.198 µM.
`Cc1cc2ccccc2nc1NC(CC(C)C)c1ccc(C(=O)NCCC(=O)O)cc1` (racemic) [Example 11, (+/−)-3-{4-[3-methyl-1-(3-methyl-quinolin-2-ylamino)-butyl]-benzoylamino}-propionic acid] returned a Kb at human glucagon receptor [1] of 0.091 µM. On human glucagon receptor [2], the Ki stood at 0.101 µM.
